Test results: patent US8497263B2, “Pyrrolinone derivative and pharmaceutical composition comprising the same” (Shionogi & Co., Ltd., priority 2007, dated 2013)

Legend:
[1] = molecular target: T1, human P2X3 receptor (Homo sapiens, UniProt P56373); test: Inhibition of ATP-induced calcium fluorescence (Fluo-3, FDSS 3000) in C6BU-1 cells stably expressing human P2X3 receptor; type: cell-based; settings: C6BU-1 cell transfected with human P2X3 receptor gene; 40 nM ATP solution; Fluo-3 fluorescence intensity
T1 construct: expressed in transfected cells
T1 sequence (P56373 1-397): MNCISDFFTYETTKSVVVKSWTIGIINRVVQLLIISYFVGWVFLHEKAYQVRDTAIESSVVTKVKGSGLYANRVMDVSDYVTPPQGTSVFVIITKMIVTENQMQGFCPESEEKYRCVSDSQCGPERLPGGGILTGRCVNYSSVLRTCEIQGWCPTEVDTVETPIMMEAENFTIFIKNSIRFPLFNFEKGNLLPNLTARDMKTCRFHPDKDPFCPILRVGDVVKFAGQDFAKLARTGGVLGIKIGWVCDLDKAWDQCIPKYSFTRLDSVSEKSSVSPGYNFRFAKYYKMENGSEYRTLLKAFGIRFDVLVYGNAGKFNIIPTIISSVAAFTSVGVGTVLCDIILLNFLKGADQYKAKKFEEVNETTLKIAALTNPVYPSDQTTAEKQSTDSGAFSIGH
Procedure: Stably expressing cell line (C6BU-1 cell transfected with human P2X3 receptor gene (GenBank accession number Y07683)) was used. The cells were seeded in a 96-well microtiter plate at a concentration of 8000 cells/well and cultured in the medium (8.3% fetal bovine serum, 8.3% horse serum, 1% antibiotic and antifungal in DMEM) for one day at 37° C. under 5% carbon dioxide atmosphere. The medium was replaced with 4 μM Fluo-3-AM solution (pH7.5) containing 20 mM HEPES, 137 mM NaCl, 2.7 mM KCl, 0.9 mM MgCl2, 5.0 mM CaCl2, 5.6 mM D-glucose, 2.5 mM probenecid, 10% BSA, and 0.08% Pluronic F-127, and incubated at 37° C. under 5% dioxide carbon atmosphere for one hour. The plate was washed with washing buffer (20 mM HEPES, 137 mM NaCl, 2.7 mM KCl, 0.9 mM MgCl2, 5.0 mM CaCl2, 5.6 mM D-glucose, 2.5 mM probenecid, pH7.5), and each well was added with 40 μL of this buffer. The plate was placed in High-Throughput Screening System FDSS 3000 (Hamamatsu Photonics K.K.). Measurement of fluorescence intensity by FDSS 3000 was started, and 40 μL of DMSO solutions containing different concentrations of the test compound as prepared by dilution with dilution buffer (20 mM HEPES, 137 mM NaCl, 2.7 mM KCl, 0.9 mM MgCl2, 5.0 mM CaCl2, 5.6 mM D-glucose, 2.5 mM probenecid, 0.1% Pluronic F-127, pH7.5) were dispensed to each well through the built-in automatic dispenser. Five minutes after, 40 nM ATP solution (50 μL) prepared by dilution with the dilution buffer was dispensed through the built-in automatic dispenser, and the measurement of fluorescence intensity was continued for 3 min. For each well, the specific maximum fluorescence intensity was calculated as the ratio of the maximum fluorescence intensity after addition of the ATP solution to the fluorescence intensity at the starting of the measurement. […] FDSS software (Hamamatsu Photonics K.K.) was used for calculation of the specific maximum fluorescence intensity. IC50 was calculated using Microsoft™ Excel™ (Microsoft Corporation) and XLfit™ (ID Business Solutions Ltd.).

SMILES | IC50 [1] [nM] | melting point [°C]
O=C(C1=C(O)C(=O)N(c2ccc(-c3ccon3)cc2)C1C1CCCCC1)c1ccc([N+](=O)[O-])cc1 (stereo not drawn) [II-98] | 70 | –
CC(=O)Nc1ccc(C(=O)C2=C(O)C(=O)N(c3ccc(-c4ccon4)cc3)C2C2CCCCC2)cc1 (stereo not drawn) [II-201] | 10 | –
CCOC(=O)c1ccc(N2C(=O)C(O)=C(C(=O)C(C)(C)C)C2c2ccccc2)cc1 (stereo not drawn) [Example I-28] | 260 | –
COc1ccc(C2NC(=O)c3[nH]nc(-c4ccc(C)cc4)c32)cc1OC (stereo not drawn) [Example I-124] | 22000 | –
CCOC(=O)c1ccc(N2C(=O)C(O)=C(C(=O)c3ccc(OC)cc3)C2C(C)C)cc1 (stereo not drawn) [Example I-20] | 140 | –
CCOC(=O)c1ccc(N2C(=O)C(=O)C(/C(=N\O)c3ccc(OC)cc3)C2c2ccccc2)cc1 (stereo not drawn) [Example I-44] | 560 | –
COc1ccccc1C1C(C(=O)C(C)=O)=C(O)C(=O)N1c1ccc(-c2ccon2)cc1 (stereo not drawn) [II-123] | 2090 | –
COc1ccccc1C1c2c(C(C)(C)C)n[nH]c2C(=O)N1c1ccc(-c2cc(CO)no2)cc1 (stereo not drawn) [II-171] | 950 | –
CCOC(=O)c1ccc(N2C(=O)C(=NOC)C(C(=O)c3ccc(OC)cc3)C2c2ccccc2)cc1 (stereo not drawn) [II-16] | 1510 | –
CC(=O)c1ccc(N2C(=O)C(=O)C(C(=O)c3ccc(Cl)cc3)C2c2ccc(Br)cc2)cc1 (stereo not drawn) [Example I-62] | 1960 | –
CCOC(=O)c1ccc(N2C(=O)C(O)=C(C(=O)c3ccco3)C2c2ccccc2)cc1 (stereo not drawn) [Example I-77] | 8010 | –
COc1ccc(C(=O)C2=C(O)C(=O)N(c3nc(-c4ccncc4)cs3)C2C2CCCCC2)cc1 (stereo not drawn) [II-95] | 710 | –
COc1ccc(C(=O)C2=C(O)C(=O)N(c3ccc(OC(F)(F)F)cc3)C2c2ccc(F)cc2)cc1 (stereo not drawn) [Example I-48] | 970 | 241 to 244
O=C1c2[nH]nc(-c3ccc(Cl)cc3)c2C(c2ccc([N+](=O)[O-])cc2)N1c1ccccn1 (stereo not drawn) [Example I-118] | 17800 | –
COc1ccc(C(=O)C2=C(O)C(=O)N(c3ccc(-c4nc(C)no4)cc3)C2c2ccc(F)cc2)cc1 (stereo not drawn) [Example I-25] | 180 | 236 to 239
COc1cccc(C2c3c(C)n[nH]c3C(=O)N2c2ccc(Br)cc2)c1 (stereo not drawn) [Example I-122] | 19300 | –
CCOc1ccc(C(=O)C2C(=O)C(=O)N(c3ccc(OC)cc3)C2c2ccc(Cl)cc2)cc1 (stereo not drawn) [Example I-88] | 15400 | –
COc1ccccc1C1c2c(-c3ccc(F)cc3)n[nH]c2C(=O)N1c1ccc(F)cc1 (stereo not drawn) [II-5] | 1370 | –
COc1ccc(/C(N)=C2/C(=O)C(=O)N(c3ccc(C(F)(F)F)cc3)C2c2ccccc2)cc1 (stereo not drawn) [II-22] | 2310 | –
COc1ccc(C(=O)C2=C(O)C(=O)N(c3ccc(C#N)cc3)C2c2ccccc2)cc1 (stereo not drawn) [Example I-76] | 6480 | –

SMILES | IC50 [1] [nM] | melting point [°C]
CCOC(=O)c1ccc(N2C(=O)C(=O)C(C(=O)c3ccc(OC)cc3)C2c2ccccc2)cc1 (stereo not drawn) [Example I-4] | 20 | –
COc1ccc(-c2n[nH]c3c2C(c2ccccc2OC)N(CCc2ccc(F)cc2)C3=O)cc1 (stereo not drawn) [Example I-278] | 1400 | –
CC(=O)Nc1ccc(-c2n[nH]c3c2C(C2CCCCC2)N(c2ccc(-c4ccon4)cc2)C3=O)cc1 (stereo not drawn) [II-202] | 1620 | –
COc1ccccc1C1c2c(C3CCC3)n[nH]c2C(=O)N1c1ccc(F)cc1 (stereo not drawn) [Example I-260] | 5630 | –
CCOC(=O)c1ccc(N2C(=O)C(O)=C(C(=O)c3cccn3C)C2c2ccccc2)cc1 (stereo not drawn) [Example I-57] | 1530 | –
CO/N=C/c1ccc(N2C(=O)c3[nH]nc(-c4ccc(OC)cc4)c3C2c2ccccc2OC)cc1 (stereo not drawn) [II-13] | 570 | –
C#Cc1ccc(N2C(=O)c3[nH]nc(C(C)(C)C)c3C2c2ccc(F)cc2)cc1 (stereo not drawn) [II-64] | 1310 | –
COc1ccc(C(=O)C2=C(O)C(=O)N(c3ccc(C4=NCCO4)cc3)C2c2ccc(F)cc2)cc1 (stereo not drawn) [Example I-69] | 3780 | 189 to 192
COc1ccccc1C1c2c(C(C)(C)C)n[nH]c2C(=O)N1c1ccc(-c2cc(C(=O)N(C)C)no2)cc1 (stereo not drawn) [II-172] | 2000 | –
CCC(CC)C1C(C(=O)c2ccc(C(=O)NCCO)cc2)=C(O)C(=O)N1c1ccc(-c2noc(C)n2)cc1 (stereo not drawn) [II-183] | 32 | –
COc1ccccc1C1C(C(=O)C2CC2)=C(O)C(=O)N1c1ccc(-c2ccon2)cc1 (stereo not drawn) [II-45] | 1070 | –
CCOC(=O)Cc1ccc(N2C(=O)C(O)=C(C(=O)c3ccc(OC)cc3)C2c2ccccc2)cc1 (stereo not drawn) [Example I-79] | 8950 | –
CC(C)(C)c1n[nH]c2c1C(C1CCCCC1)N(c1ccc(-c3ccon3)cc1)C2=O (stereo not drawn) [Example I-96, 3-tert-butyl-4-cyclohexyl-5-(4-isoxazol-3-ylphenyl)-4,5-dihydro-1H-pyrrolo[3,4-c]pyrazol-6-one] | 920 | 251 to 252
COc1ccc(-c2n[nH]c3c2C(c2ccccc2)N(c2ccc(C(=O)N(C)C)cc2)C3=O)cc1 (stereo not drawn) [II-106] | 2080 | –
CCCCC(=O)C1=C(O)C(=O)N(c2ccc(C(=O)OCC)cc2)C1c1ccccc1 (stereo not drawn) [Example I-49] | 1020 | –
COc1ccc(C(=O)C2=C(O)C(=O)N(c3ccc(C(=O)N(C)C)cc3)C2c2ccccc2)cc1 (stereo not drawn) [Example I-74] | 5920 | –
CCCCC(=O)C1=C(O)C(=O)N(c2ccc(-c3ccon3)cc2)C1c1ccccc1OC (stereo not drawn) [II-9] | 860 | –
Nc1ccc(C(=O)C2=C(O)C(=O)N(c3ccc(-c4ccon4)cc3)C2C2CCCCC2)cc1 (stereo not drawn) [II-130] | 130 | –
CCOC(=O)c1csc(N2C(=O)C(O)=C(C(=O)c3ccc(OC)cc3)C2c2ccccc2)n1 (stereo not drawn) [Example I-52] | 1270 | –
COc1ccc(C(=O)C2=C(O)C(=O)N(CCc3ccc(F)cc3)C2c2ccccc2OC)cc1 (stereo not drawn) [Example I-273] | 2200 | –

SMILES | IC50 [1] [nM] | melting point [°C]
COc1ccccc1C1C(C(=O)C(C)(C)C)=C(O)C(=O)N1c1ccc(C2=NCCS2)cc1 (stereo not drawn) [II-29] | 590 | –
CCOC(=O)c1ccc(N2C(=O)C(O)=C(C(=O)c3cccs3)C2c2ccccc2)cc1 (stereo not drawn) [Example I-36] | 380 | –
COc1ccc(C(=O)C2=C(O)C(=O)N(c3nc4ccc(Cl)cc4s3)C2C2CCCCC2)cc1 (stereo not drawn) [II-181] | 330 | –
COc1ccccc1C1C(C(=O)CCOCc2ccccc2)=C(O)C(=O)N1c1ccc(-c2ccon2)cc1 (stereo not drawn) [II-85] | 2520 | –
CCOC(=O)c1ccc(N2C(=O)C(=O)C(C(C)=O)C2c2ccccc2)cc1 (stereo not drawn) [Example I-72] | 4790 | –
COc1ccc(-c2n[nH]c3c2C(C2CC2)N(c2ccc(-c4ccon4)cc2)C3=O)cc1 (stereo not drawn) [II-217] | 1870 | –
COC(=O)c1ccc(C(=O)C2=C(O)C(=O)N(c3ccc(C(F)(F)F)cc3)C2c2ccccc2)cc1 (stereo not drawn) [Example I-24] | 180 | –
COc1ccccc1C1C(C(=O)C(C)(C)CO)=C(O)C(=O)N1c1ccc(-c2ccon2)cc1 (stereo not drawn) [II-129] | 740 | –
CCOC(=O)c1ccc(N2C(=O)C(=O)C(C(=O)c3ccc(OC)cc3)C2C2CCCCC2)cc1 (stereo not drawn) [Example I-2] | 10 | 252 to 255
C#Cc1ccc(N2C(=O)C(O)=C(C(=O)c3ccc(OC)cc3)C2c2ccc(F)cc2)cc1 (stereo not drawn) [II-57] | 1680 | –
CCOC(=O)c1ccc(N2C(=O)C(O)=C(C(=O)C3CCC3)C2c2ccccc2)cc1 (stereo not drawn) [Example I-53] | 1280 | –
COc1ccccc1C1c2c(CCOCc3ccccc3)n[nH]c2C(=O)N1c1ccc(-c2ccon2)cc1 (stereo not drawn) [II-87] | 1320 | –
COc1ccc(C(=O)C2C(=O)C(=O)N(c3ccc(C(=O)OC(C)C)cc3)C2c2ccccc2)cc1 (stereo not drawn) [Example I-21] | 160 | –
COc1ccc(C(=O)C2=C(O)C(=O)N(c3ccc(Cl)cc3)C2c2ccc(F)cc2)cc1 (stereo not drawn) [Example I-66] | 3460 | –
COc1ccccc1C1c2c(-c3ccc(C)cc3)n[nH]c2C(=O)N1c1ccc(F)cc1 (stereo not drawn) [Example I-95] | 560 | –
COc1ccccc1C1c2c(C(C)(C)C)n[nH]c2C(=O)N1c1ccc(-c2cc(NC(=O)OC(C)(C)C)no2)cc1 (stereo not drawn) [II-193] | 2270 | –
CCOC(=O)c1ccc(N2C(=O)C(O)=C(C(=NOC)c3ccc(OC)cc3)C2c2ccccc2)cc1 (stereo not drawn) [II-17] | 305 | –
O=C(C1=C(O)C(=O)N(c2ccc(-c3ccon3)cc2)C1C1CCCCC1)c1cccnc1 (stereo not drawn) [II-75] | 370 | –
